The results in this text go back to ChEMBL document CHEMBL2177025, “Chemical proteomics-based analysis of off-target binding profiles for rosiglitazone and pioglitazone: clues for assessing potential for cardiotoxicity” (J Med Chem, 2012).

Experiment [1] deals with Transcription factor SOX-5 (Mus musculus) (UniProt P35710). The experiment is described as follows: Binding affinity to mouse transcription factor SOX-5 after 15 mins by chromatographic analysis.
For experiment [2], the target named is Inactive tyrosine-protein kinase transmembrane receptor ROR1 (Mus musculus) (UniProt Q9Z139). The experiment in a line: Binding affinity to mouse tyrosine-protein kinase transmembrane receptor ROR1 by chromatographic analysis.
Experiment [3] has as its target Neuronal acetylcholine receptor subunit alpha-10 (Rattus norvegicus) (UniProt Q9JLB5). The experiment in a line: Binding affinity to neuronal acetylcholine receptor subunit alpha-10 in Sprague-Dawley rat heart homogenate after 15 mins by chromatographic analysis. It is filed as tissue-based.
The target of experiment [4] is Multiple PDZ domain protein (Mus musculus) (UniProt Q8VBX6). The experiment in a line: Binding affinity to mouse multiple PDZ domain protein by chromatographic analysis.
The target in experiment [5] is Serine/threonine-protein kinase MAK (Mus musculus) (UniProt Q04859). The experiment in a line: Binding affinity to mouse serine/threonine-protein kinase MAK by chromatographic analysis.
Experiment [6] concerns the target Importin-7 (Mus musculus) (UniProt Q9EPL8). The experiment in a line: Binding affinity to mouse importin-7 by chromatographic analysis.
Experiment [7] concerns the target Dynactin subunit 1 (Mus musculus) (UniProt O08788). The experiment is described as follows: Binding affinity to mouse dynactin-1 by chromatographic analysis.
Experiment [8] concerns the target T1, Cardiotrophin-like cytokine factor 1 (Mus musculus) (UniProt Q9QZM3).
T1 sequence (whole entry): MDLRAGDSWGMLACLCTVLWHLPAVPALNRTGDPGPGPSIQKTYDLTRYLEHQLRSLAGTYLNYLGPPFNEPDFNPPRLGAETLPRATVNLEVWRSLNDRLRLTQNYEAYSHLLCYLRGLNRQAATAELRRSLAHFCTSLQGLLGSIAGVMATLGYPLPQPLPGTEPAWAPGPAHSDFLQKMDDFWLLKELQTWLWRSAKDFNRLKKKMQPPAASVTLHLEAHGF
The experiment is described as follows: Binding affinity to mouse cardiotrophin-like cytokine factor 1 by chromatographic analysis.

The next experiment addresses Dystonin (Mus musculus) (UniProt Q91ZU6). The experiment in a line: Binding affinity to mouse bullous pemphigoid antigen 1 by chromatographic analysis.
Experiment [9] concerns the target Trace amine-associated receptor 7b (Mus musculus) (UniProt Q5QD11). The experiment is described as follows: Binding affinity to mouse trace amine-associated receptor 7b by chromatographic analysis.
Experiment [10] has as its target Sodium-dependent multivitamin transporter (Rattus norvegicus) (UniProt O70247). The experiment in a line: Binding affinity to sodium-dependent multivitamin transporter in Sprague-Dawley rat heart homogenate after 15 mins by chromatographic analysis. Format: tissue-based.
The target of experiment [11] is H(+)/Cl(-) exchange transporter 6 (Mus musculus) (UniProt O35454). The experiment in a line: Binding affinity to mouse chloride channel protein 6 after 15 mins by chromatographic analysis.
Experiment [12] concerns the target ATP synthase F(1) complex subunit alpha, mitochondrial (Rattus norvegicus) (UniProt P15999). The experiment in a line: Binding affinity to mitochondrial ATP synthase alpha chain in Sprague-Dawley rat heart homogenate after 15 mins by chromatographic analysis. Format: tissue-based.
Experiment [13] deals with ATP synthase F(1) complex catalytic subunit beta, mitochondrial (Rattus norvegicus) (UniProt P10719). The experiment in a line: Binding affinity to mitochondrial ATP synthase beta chain in Sprague-Dawley rat heart homogenate after 15 mins by chromatographic analysis. It is filed as tissue-based.
In experiment [14] the target is Serine/threonine-protein kinase WNK1 (Mus musculus) (UniProt P83741). The experiment in a line: Binding affinity to mouse serine/threonine-protein kinase WNK1 by chromatographic analysis relative to rosiglitazone.
In experiment [15] the target is Endoplasmic reticulum membrane adapter protein XK (Mus musculus) (UniProt Q9QXY7). The experiment is described as follows: Binding affinity to mouse membrane transport protein XK by chromatographic analysis relative to pioglitazone.
The target of experiment [16] is Ras/Rap GTPase-activating protein SynGAP (Rattus norvegicus) (UniProt Q9QUH6). The experiment in a line: Binding affinity to RasGTPase-activating protein SynGAP in Sprague-Dawley rat heart homogenate after 15 mins by chromatographic analysis relative to pioglitazone. Format: tissue-based.
The target in experiment [17] is PX domain-containing protein kinase-like protein (Rattus norvegicus) (UniProt Q4FZZ1). The experiment is described as follows: Binding affinity to PX domain-containing protein kinase-like protein in Sprague-Dawley rat heart homogenate after 15 mins by chromatographic analysis relative to pioglitazone. Format: tissue-based.
In experiment [18] the target is Protein kinase C and casein kinase substrate in neurons protein 2 (Mus musculus) (UniProt Q9WVE8). The experiment is described as follows: Binding affinity to mouse protein kinase C and casein kinase substrate in neurons protein 2 by chromatographic analysis.
In a further experiment the target is Norrin (Mus musculus) (UniProt P48744). The experiment in a line: Binding affinity to mouse norrin precursor by chromatographic analysis.
The target in experiment [19] is T2, Dihydrolipoyl dehydrogenase, mitochondrial (Mus musculus) (UniProt O08749).
T2 sequence (whole entry): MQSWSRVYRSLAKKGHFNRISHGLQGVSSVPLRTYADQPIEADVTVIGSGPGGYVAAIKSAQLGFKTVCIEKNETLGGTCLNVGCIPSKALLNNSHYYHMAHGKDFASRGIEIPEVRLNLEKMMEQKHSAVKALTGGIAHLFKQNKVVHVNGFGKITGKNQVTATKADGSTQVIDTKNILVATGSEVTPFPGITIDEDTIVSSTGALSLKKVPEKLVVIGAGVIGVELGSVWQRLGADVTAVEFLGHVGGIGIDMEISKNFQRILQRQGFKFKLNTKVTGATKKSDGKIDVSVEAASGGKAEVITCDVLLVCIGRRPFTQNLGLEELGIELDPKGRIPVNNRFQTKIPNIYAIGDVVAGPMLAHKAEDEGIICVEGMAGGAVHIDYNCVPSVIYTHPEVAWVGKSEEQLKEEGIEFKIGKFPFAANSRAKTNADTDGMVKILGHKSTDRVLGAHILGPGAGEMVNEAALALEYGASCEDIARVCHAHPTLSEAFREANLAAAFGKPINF
The experiment is described as follows: Binding affinity to mouse mitochondrial dihydrolipoyl dehydrogenase by chromatographic analysis relative to rosiglitazone.

In experiment [20] the target is Glyceraldehyde-3-phosphate dehydrogenase (Rattus norvegicus) (UniProt P04797). The experiment in a line: Binding affinity to glyceraldehyde 3-phosphate dehydrogenase in Sprague-Dawley rat heart homogenate after 15 mins by chromatographic analysis. It is filed as tissue-based.
The target of experiment [21] is T3, Long-chain specific acyl-CoA dehydrogenase, mitochondrial (Rattus norvegicus) (UniProt P15650).
T3 sequence (whole entry): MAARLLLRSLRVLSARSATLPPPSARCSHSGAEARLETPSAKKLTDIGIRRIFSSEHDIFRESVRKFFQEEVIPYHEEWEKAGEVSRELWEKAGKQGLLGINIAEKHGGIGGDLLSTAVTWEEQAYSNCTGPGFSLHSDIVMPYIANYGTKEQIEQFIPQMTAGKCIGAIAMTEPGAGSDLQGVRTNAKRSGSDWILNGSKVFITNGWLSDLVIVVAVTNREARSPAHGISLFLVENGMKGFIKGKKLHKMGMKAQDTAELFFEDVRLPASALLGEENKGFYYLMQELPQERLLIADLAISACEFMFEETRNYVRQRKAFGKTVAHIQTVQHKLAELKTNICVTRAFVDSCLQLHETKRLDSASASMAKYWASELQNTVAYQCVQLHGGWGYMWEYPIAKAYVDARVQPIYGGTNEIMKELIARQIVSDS
The experiment is described as follows: Binding affinity to mitochondrial long-chain specific acyl-CoA dehydrogenase in Sprague-Dawley rat heart homogenate after 15 mins by chromatographic analysis relative to rosiglitazone. It is filed as tissue-based.

Structures are written as SMILES. The source made the active and inactive calls. The calls are words filed in the database; no cut-off is given here.

Chain of Multiple PDZ domain protein (Mus musculus) (Q8VBX6 whole entry, the tested form may be a part): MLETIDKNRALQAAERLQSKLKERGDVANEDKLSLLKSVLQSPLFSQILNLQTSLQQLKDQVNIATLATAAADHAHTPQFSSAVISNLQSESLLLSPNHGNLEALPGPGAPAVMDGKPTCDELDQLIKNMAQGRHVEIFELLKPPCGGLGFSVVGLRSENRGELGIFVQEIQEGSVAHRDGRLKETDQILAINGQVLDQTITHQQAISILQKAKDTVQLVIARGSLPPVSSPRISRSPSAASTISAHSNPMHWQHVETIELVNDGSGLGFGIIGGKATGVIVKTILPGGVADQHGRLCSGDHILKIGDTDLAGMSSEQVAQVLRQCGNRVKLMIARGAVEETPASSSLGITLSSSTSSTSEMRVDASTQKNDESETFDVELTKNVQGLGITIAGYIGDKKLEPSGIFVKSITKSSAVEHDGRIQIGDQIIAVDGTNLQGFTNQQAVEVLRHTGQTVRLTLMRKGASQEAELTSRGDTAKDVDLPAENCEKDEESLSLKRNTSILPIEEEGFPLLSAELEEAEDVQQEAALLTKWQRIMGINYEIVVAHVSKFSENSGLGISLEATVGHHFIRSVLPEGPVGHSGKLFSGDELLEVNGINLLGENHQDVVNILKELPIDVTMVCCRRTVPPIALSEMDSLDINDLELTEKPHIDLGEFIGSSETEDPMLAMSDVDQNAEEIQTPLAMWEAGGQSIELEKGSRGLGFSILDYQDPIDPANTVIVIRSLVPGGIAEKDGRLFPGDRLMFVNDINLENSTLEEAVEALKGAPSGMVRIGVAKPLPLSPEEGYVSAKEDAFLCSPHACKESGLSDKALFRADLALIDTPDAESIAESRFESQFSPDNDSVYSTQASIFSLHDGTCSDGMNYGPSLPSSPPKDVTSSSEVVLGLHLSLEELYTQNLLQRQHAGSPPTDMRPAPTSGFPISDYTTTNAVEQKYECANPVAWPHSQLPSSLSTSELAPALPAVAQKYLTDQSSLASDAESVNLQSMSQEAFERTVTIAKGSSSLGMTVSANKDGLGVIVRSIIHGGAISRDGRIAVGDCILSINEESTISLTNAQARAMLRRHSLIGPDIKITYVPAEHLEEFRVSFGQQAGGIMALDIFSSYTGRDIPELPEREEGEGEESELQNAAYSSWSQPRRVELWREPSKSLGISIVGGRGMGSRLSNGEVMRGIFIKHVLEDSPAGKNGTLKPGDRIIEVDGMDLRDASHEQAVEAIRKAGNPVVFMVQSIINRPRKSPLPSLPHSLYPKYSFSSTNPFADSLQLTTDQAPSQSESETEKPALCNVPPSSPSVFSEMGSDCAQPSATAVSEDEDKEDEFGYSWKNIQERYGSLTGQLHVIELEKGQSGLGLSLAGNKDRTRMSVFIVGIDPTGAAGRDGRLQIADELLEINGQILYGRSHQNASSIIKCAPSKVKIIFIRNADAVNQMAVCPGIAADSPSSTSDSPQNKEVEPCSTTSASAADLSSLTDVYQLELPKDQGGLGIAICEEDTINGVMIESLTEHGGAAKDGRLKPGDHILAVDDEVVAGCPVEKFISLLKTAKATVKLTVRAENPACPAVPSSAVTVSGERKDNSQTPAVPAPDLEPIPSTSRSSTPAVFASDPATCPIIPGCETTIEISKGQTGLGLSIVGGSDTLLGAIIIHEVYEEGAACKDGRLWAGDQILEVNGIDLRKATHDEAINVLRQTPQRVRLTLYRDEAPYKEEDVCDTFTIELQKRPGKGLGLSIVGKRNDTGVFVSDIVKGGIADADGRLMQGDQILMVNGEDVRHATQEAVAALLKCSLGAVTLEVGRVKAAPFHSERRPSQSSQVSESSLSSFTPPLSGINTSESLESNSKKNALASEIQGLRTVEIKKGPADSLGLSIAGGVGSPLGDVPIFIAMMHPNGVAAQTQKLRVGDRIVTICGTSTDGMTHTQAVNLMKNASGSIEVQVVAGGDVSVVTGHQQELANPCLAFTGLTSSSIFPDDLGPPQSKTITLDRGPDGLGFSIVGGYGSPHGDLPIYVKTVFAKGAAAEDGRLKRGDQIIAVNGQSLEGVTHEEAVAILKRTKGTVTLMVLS
Chain of Dynactin subunit 1 (Mus musculus) (O08788 whole entry): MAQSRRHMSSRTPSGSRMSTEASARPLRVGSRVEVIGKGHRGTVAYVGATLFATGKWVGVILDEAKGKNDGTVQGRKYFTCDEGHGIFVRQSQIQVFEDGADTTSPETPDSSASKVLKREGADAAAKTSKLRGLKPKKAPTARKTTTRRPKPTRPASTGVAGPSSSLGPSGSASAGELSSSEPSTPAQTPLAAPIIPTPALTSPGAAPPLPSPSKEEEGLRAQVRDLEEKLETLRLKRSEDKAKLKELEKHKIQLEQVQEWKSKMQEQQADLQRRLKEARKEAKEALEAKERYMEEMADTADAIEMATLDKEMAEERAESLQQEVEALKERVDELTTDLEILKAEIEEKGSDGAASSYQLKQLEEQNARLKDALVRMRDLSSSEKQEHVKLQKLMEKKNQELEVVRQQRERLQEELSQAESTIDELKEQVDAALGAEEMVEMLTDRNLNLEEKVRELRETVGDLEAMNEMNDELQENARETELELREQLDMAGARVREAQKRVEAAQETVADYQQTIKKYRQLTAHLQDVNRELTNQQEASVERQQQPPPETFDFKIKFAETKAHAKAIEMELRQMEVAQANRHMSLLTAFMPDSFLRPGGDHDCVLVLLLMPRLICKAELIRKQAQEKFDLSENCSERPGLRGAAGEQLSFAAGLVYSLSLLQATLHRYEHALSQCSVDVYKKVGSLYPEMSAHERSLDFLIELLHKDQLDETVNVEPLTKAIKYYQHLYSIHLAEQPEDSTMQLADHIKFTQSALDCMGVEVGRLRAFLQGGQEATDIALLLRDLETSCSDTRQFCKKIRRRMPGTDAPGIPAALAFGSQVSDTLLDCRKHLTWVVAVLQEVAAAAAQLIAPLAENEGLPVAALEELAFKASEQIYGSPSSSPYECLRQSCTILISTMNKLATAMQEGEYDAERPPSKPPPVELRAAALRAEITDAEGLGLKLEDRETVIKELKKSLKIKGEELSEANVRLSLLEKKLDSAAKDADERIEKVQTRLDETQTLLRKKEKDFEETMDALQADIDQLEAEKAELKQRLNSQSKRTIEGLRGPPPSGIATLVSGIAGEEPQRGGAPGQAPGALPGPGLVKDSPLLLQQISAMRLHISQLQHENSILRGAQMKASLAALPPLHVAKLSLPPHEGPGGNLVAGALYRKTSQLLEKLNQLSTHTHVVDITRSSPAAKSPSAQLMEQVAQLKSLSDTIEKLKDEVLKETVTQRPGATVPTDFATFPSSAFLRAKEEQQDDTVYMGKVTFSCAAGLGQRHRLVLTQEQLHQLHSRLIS
Chain of Protein kinase C and casein kinase substrate in neurons protein 2 (Mus musculus) (Q9WVE8 whole entry): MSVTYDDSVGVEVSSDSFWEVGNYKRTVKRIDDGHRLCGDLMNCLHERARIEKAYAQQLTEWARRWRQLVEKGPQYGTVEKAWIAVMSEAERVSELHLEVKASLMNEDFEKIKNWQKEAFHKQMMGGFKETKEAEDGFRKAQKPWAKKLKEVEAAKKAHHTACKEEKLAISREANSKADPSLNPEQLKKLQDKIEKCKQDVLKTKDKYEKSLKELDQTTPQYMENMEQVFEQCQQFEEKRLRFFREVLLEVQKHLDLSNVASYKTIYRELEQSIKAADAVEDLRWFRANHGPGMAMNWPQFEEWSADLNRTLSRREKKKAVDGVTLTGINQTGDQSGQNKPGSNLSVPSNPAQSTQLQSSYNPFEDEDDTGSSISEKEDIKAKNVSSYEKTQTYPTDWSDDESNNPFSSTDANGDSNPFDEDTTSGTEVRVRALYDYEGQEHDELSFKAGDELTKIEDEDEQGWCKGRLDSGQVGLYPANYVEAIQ
Chain of Importin-7 (Mus musculus) (Q9EPL8 whole entry): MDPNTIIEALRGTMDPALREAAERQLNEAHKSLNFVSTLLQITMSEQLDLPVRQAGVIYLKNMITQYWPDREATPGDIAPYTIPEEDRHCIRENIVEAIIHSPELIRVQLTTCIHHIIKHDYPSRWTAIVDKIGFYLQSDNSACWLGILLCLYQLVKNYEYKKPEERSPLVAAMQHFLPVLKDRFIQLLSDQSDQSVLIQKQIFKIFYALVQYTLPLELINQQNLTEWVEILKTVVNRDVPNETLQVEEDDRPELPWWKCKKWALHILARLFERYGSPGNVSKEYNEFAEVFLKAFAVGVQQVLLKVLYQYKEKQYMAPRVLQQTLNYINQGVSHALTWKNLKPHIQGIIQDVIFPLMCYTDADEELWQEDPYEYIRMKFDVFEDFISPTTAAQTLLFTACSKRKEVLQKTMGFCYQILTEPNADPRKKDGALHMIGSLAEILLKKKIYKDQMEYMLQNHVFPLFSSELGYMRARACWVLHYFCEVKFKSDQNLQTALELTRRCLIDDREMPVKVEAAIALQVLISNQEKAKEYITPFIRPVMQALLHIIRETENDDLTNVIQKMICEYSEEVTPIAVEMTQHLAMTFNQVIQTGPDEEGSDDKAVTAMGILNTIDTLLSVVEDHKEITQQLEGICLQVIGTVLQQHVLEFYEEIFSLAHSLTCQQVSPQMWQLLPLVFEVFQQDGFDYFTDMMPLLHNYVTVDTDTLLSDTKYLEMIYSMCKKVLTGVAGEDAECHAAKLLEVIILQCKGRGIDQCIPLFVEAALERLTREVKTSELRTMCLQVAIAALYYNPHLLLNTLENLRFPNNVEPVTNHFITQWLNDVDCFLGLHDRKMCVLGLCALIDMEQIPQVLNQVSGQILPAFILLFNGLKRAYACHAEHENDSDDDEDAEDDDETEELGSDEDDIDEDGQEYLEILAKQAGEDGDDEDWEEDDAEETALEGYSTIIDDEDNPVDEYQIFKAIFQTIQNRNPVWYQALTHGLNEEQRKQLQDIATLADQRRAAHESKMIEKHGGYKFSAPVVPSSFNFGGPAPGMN
Chain of Norrin (Mus musculus) (P48744 whole entry): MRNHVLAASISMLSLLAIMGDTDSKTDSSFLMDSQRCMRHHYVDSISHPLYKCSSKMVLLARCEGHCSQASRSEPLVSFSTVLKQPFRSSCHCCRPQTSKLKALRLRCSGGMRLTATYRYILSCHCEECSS

On to `CCc1ccc(CCOc2ccc(CC3SC(=O)NC3=O)cc2)nc1` (stereo not drawn), for which the outcome in [1], in [2], in experiment [3], in [4], in [5] and in experiment [6] was Active. Besides, the outcome (in experiment [7]; in experiment [8]; at Dystonin (Mus musculus); in experiment [9]; in [10]; in experiment [11]) was Active. In addition, the result in experiment [12], in experiment [13], in [15], in [16], in [17] and in [19] was Active. For the same molecule, the outcome in experiment [20] and in [21] was Active. Besides, the fold change (FC) in experiment [14] came to 3.24; in experiment [19], 1.88; in experiment [21], 5.78. Further, the outcome (in experiment [18]; on Norrin (Mus musculus)) was inactive.

With `CN(CCOc1ccc(CC2SC(=O)NC2=O)cc1)c1ccccn1` (stereo not drawn), the result in experiment [1], in experiment [2], in [3], in [4], in [5] and in [6] was Active. Further, the result (in experiment [7]; in experiment [8]; at Dystonin (Mus musculus); in experiment [10]; in [11]; in experiment [12]) was Active. For the same molecule, the outcome (in experiment [13]; in experiment [14]; in experiment [18]; at Norrin (Mus musculus); in experiment [19]; in experiment [20]) was Active. Besides, the result in experiment [21] was Active. Moreover, the result in [9] was inactive. The fold change (FC) in experiment [15] was 1.88; in experiment [16], 2.12; in [17], 2.64.
